# Target: RPA70 (replication protein A) (Homo sapiens, UniProt P27694)
# Assay: reconstituted RPA-dependent ATR kinase assay with western blot
# Type: biochemical
# Sequence of RPA70 (replication protein A) (P15927 whole entry): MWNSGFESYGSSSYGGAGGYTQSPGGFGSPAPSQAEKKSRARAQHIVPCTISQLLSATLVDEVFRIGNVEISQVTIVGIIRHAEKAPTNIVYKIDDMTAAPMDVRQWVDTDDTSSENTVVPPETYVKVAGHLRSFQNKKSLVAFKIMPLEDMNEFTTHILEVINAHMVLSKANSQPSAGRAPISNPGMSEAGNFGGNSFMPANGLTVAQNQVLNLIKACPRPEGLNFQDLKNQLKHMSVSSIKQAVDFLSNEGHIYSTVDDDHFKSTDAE
# Sequence of RPA70 (replication protein A) (P35244 2-121, further chain): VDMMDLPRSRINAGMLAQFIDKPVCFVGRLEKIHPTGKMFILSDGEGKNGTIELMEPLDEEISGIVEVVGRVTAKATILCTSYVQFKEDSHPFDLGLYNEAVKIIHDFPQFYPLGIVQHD
# Sequence of RPA70 (replication protein A) (P27694 whole entry): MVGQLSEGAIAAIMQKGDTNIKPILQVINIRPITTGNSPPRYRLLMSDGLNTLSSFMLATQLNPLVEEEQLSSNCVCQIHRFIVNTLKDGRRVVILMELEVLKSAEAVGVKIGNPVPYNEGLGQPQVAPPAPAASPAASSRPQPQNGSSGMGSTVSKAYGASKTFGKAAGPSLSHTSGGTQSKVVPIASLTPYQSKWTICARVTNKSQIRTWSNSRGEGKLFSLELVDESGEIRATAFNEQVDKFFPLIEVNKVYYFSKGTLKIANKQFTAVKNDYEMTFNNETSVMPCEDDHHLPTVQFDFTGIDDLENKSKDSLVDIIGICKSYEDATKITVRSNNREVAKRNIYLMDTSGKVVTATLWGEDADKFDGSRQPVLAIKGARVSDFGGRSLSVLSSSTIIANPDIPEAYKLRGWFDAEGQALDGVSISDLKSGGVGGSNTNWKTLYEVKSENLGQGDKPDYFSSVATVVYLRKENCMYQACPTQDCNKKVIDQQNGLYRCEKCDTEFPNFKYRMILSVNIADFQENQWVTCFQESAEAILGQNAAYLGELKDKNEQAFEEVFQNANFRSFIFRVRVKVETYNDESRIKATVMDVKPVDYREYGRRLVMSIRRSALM
structure (smiles),measurement,value
"O=C1C=Cc2ccccc2/C1=C/Nc1ccccc1O [HAMNO, (1Z)-1-[(2-hydroxyanilino)methylidene]naphthalen-2-one]",reconstituted RPA-dependent ATR kinase assay with western blot,we titrated increasing amounts of HAMNO and PAME into the fully activated ATR reaction
